The NIST ThermoML archive (doi:10.1016/j.jct.2011.12.035)
± gives the expanded uncertainty stated by the source.

Assay: xn = mol fraction of the nth substance listed
Details: Gas, Buoyancy - hydrostatic balance with magnetic suspension - one sinker

N#N [nitrogen] + O=C=O
Details	mass density [kg/m3]
324.98 K, 10004 kPa, x2 = 0.501	153.908 ± 0.37
324.98 K, 11001 kPa, x2 = 0.501	171.162 ± 0.41
324.98 K, 12005 kPa, x2 = 0.501	188.662 ± 0.46
324.98 K, 13008 kPa, x2 = 0.501	206.25 ± 0.5
324.98 K, 14011 kPa, x2 = 0.501	223.826 ± 0.54
324.98 K, 14991 kPa, x2 = 0.501	240.922 ± 0.58
324.98 K, 16018 kPa, x2 = 0.501	258.66 ± 0.63
324.98 K, 17012 kPa, x2 = 0.501	275.602 ± 0.67
324.98 K, 18018 kPa, x2 = 0.501	292.404 ± 0.71
324.98 K, 19023 kPa, x2 = 0.501	308.813 ± 0.75
324.98 K, 19436 kPa, x2 = 0.501	315.426 ± 0.76
349.95 K, 1995.5 kPa, x2 = 0.2	21.523 ± 0.052
349.95 K, 3995.9 kPa, x2 = 0.2	43.283 ± 0.1
349.95 K, 5996.5 kPa, x2 = 0.2	65.117 ± 0.16
349.95 K, 7996.2 kPa, x2 = 0.2	86.91 ± 0.21
349.95 K, 9978.8 kPa, x2 = 0.2	108.381 ± 0.26
349.95 K, 11996 kPa, x2 = 0.2	129.976 ± 0.32
349.95 K, 13995 kPa, x2 = 0.2	151.019 ± 0.37
349.95 K, 15999 kPa, x2 = 0.2	171.67 ± 0.42
349.95 K, 17993 kPa, x2 = 0.2	191.695 ± 0.46
349.95 K, 19820 kPa, x2 = 0.2	209.531 ± 0.51
349.96 K, 983.48 kPa, x2 = 0.501	12.303 ± 0.035
349.96 K, 1988.3 kPa, x2 = 0.501	25.152 ± 0.061
349.96 K, 2996.4 kPa, x2 = 0.501	38.326 ± 0.094
349.96 K, 3997 kPa, x2 = 0.501	51.667 ± 0.12
349.96 K, 4995.9 kPa, x2 = 0.501	65.24 ± 0.16
349.96 K, 5996.2 kPa, x2 = 0.501	79.074 ± 0.19
349.96 K, 6995.9 kPa, x2 = 0.501	93.129 ± 0.23
349.96 K, 7995.5 kPa, x2 = 0.501	107.379 ± 0.26
349.96 K, 8996.2 kPa, x2 = 0.501	121.83 ± 0.29
349.96 K, 9996.3 kPa, x2 = 0.501	136.421 ± 0.33
349.96 K, 10998 kPa, x2 = 0.501	151.155 ± 0.37
349.96 K, 11997 kPa, x2 = 0.501	165.911 ± 0.4
349.96 K, 12998 kPa, x2 = 0.501	180.741 ± 0.44
349.96 K, 14000 kPa, x2 = 0.501	195.573 ± 0.47
349.96 K, 14998 kPa, x2 = 0.501	210.29 ± 0.51
349.96 K, 15995 kPa, x2 = 0.501	224.908 ± 0.55
349.96 K, 16996 kPa, x2 = 0.501	239.453 ± 0.58
349.96 K, 17996 kPa, x2 = 0.501	253.79 ± 0.61
349.96 K, 18997 kPa, x2 = 0.501	267.945 ± 0.65
349.96 K, 19977 kPa, x2 = 0.501	281.556 ± 0.68
374.94 K, 981.92 kPa, x2 = 0.2	9.845 ± 0.024
374.94 K, 1992.4 kPa, x2 = 0.2	19.995 ± 0.049
374.94 K, 3995.7 kPa, x2 = 0.2	40.155 ± 0.097
374.94 K, 5995.1 kPa, x2 = 0.2	60.236 ± 0.15
374.94 K, 7995.3 kPa, x2 = 0.2	80.217 ± 0.19
374.94 K, 9993 kPa, x2 = 0.2	99.987 ± 0.24
374.94 K, 11990 kPa, x2 = 0.2	119.489 ± 0.29
374.94 K, 13988 kPa, x2 = 0.2	138.676 ± 0.34
374.94 K, 16023 kPa, x2 = 0.2	157.817 ± 0.38
374.94 K, 17847 kPa, x2 = 0.2	174.574 ± 0.42
374.94 K, 19903 kPa, x2 = 0.2	192.989 ± 0.47
374.95 K, 987.06 kPa, x2 = 0.501	11.492 ± 0.028
374.95 K, 1987.8 kPa, x2 = 0.501	23.329 ± 0.057
374.95 K, 2995.7 kPa, x2 = 0.501	35.439 ± 0.088
374.95 K, 3994.8 kPa, x2 = 0.501	47.603 ± 0.12
374.95 K, 4993.3 kPa, x2 = 0.501	59.918 ± 0.15
374.95 K, 5994.6 kPa, x2 = 0.501	72.415 ± 0.18
374.95 K, 6995 kPa, x2 = 0.501	85.031 ± 0.21
374.95 K, 8053.6 kPa, x2 = 0.501	98.499 ± 0.24
374.95 K, 8965.3 kPa, x2 = 0.501	110.186 ± 0.27
374.95 K, 9995.9 kPa, x2 = 0.501	123.471 ± 0.3
374.95 K, 10995 kPa, x2 = 0.501	136.416 ± 0.33
374.95 K, 11992 kPa, x2 = 0.501	149.335 ± 0.36
374.95 K, 12992 kPa, x2 = 0.501	162.294 ± 0.39
374.95 K, 13995 kPa, x2 = 0.501	175.285 ± 0.42
374.95 K, 14994 kPa, x2 = 0.501	188.172 ± 0.46
374.95 K, 15990 kPa, x2 = 0.501	200.942 ± 0.49
374.95 K, 16990 kPa, x2 = 0.501	213.677 ± 0.52
374.95 K, 17988 kPa, x2 = 0.501	226.253 ± 0.55
374.95 K, 19119 kPa, x2 = 0.501	240.354 ± 0.58
374.95 K, 19941 kPa, x2 = 0.501	250.44 ± 0.61
400.01 K, 996.68 kPa, x2 = 0.2	9.356 ± 0.023
400.01 K, 1978.2 kPa, x2 = 0.2	18.57 ± 0.045
400.01 K, 3994 kPa, x2 = 0.2	37.452 ± 0.091
400.01 K, 5994.7 kPa, x2 = 0.2	56.097 ± 0.14
400.01 K, 7993.8 kPa, x2 = 0.2	74.576 ± 0.18
400.01 K, 9990.6 kPa, x2 = 0.2	92.826 ± 0.23
400.01 K, 11990 kPa, x2 = 0.2	110.835 ± 0.27
400.01 K, 13987 kPa, x2 = 0.2	128.512 ± 0.31
400.01 K, 15981 kPa, x2 = 0.2	145.821 ± 0.35
400.01 K, 17979 kPa, x2 = 0.2	162.772 ± 0.39
400.01 K, 19979 kPa, x2 = 0.2	179.326 ± 0.43
400.02 K, 975.89 kPa, x2 = 0.501	10.626 ± 0.026
400.02 K, 1987.6 kPa, x2 = 0.501	21.767 ± 0.053
400.02 K, 2995.6 kPa, x2 = 0.501	32.992 ± 0.083
400.02 K, 3980.9 kPa, x2 = 0.501	44.058 ± 0.11
400.02 K, 4993.2 kPa, x2 = 0.501	55.527 ± 0.14
400.02 K, 5994.2 kPa, x2 = 0.501	66.95 ± 0.16
400.02 K, 6991.4 kPa, x2 = 0.501	78.405 ± 0.19
400.02 K, 7992.4 kPa, x2 = 0.501	89.956 ± 0.22
400.02 K, 8994.6 kPa, x2 = 0.501	101.571 ± 0.25
400.02 K, 9979.8 kPa, x2 = 0.501	113.018 ± 0.27
400.02 K, 10987 kPa, x2 = 0.501	124.751 ± 0.3
400.02 K, 11986 kPa, x2 = 0.501	136.359 ± 0.33
400.02 K, 12984 kPa, x2 = 0.501	147.944 ± 0.36
400.02 K, 13986 kPa, x2 = 0.501	159.545 ± 0.39
400.02 K, 14984 kPa, x2 = 0.501	171.05 ± 0.41
400.02 K, 15985 kPa, x2 = 0.501	182.526 ± 0.44
400.02 K, 16984 kPa, x2 = 0.501	193.894 ± 0.47
400.02 K, 17965 kPa, x2 = 0.501	204.97 ± 0.5
400.02 K, 18983 kPa, x2 = 0.501	216.347 ± 0.52
400.02 K, 19960 kPa, x2 = 0.501	227.147 ± 0.55
